# Activity calls are given as the source filed them.
# What was measured:
# [1] = inhibitors of SNCA 5'UTR-driven reporter translation, confirmation, H4 neuroglioma cells, luminescence (AID 1988); format: functional, cell-based
# [2] = inhibitors of firefly luciferase expression or activity, dose response, H4 neuroglioma cells, luminescence (AID 1990); format: functional, cell-based
# [3] = Luminescence Cell-Based Dose Response HTS to Identify Inhibitors of 5'UTR Stem-Loop Driven Prion Protein mRNA Translation in H4 Neuroglioblastoma Cells. [Related pubchem assays: 1827 (Project Summary), 1813 (Primary HTS)]; format: functional
# [4] = cytotoxicity in HEK-293T cells, dose response, cytotoxicity control for TCR NF-kB inhibitor project, luminescence, T-cell screen hits (AID 489026); format: functional, cell-based;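 also: cells exposed to compound about 14 hours before the viability readout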
# [5] = P. falciparum Dd2 growth inhibitors, dose response, SYBR Green, cherry-picked samples (AID 1159567); format: functional, cell-based
# Nonstructural protein 1 = Nonstructural protein 1 (Influenza A virus, UniProt Q194T2); format: functional, Influenza A virus (A/California/07/2009(H1N1))
# Chain of Nonstructural protein 1 (Q194T2 whole entry): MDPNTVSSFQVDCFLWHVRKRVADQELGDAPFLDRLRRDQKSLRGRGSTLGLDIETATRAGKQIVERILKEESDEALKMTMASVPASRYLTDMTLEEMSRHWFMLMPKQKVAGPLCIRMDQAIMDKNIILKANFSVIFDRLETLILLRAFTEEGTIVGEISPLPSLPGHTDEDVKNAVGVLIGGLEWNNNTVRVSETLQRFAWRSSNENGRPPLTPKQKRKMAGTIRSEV
# [6] = target: T1, Microphthalmia-associated transcription factor (Homo sapiens, UniProt O75030); experiment: TRPM1 promoter luciferase signal decrease, dose response, MITF inhibitor project, cell-based, SK-MEL-5, cherry-picked, set 3 (AID 493073); format: functional
# T1 sequence (O75030 whole entry): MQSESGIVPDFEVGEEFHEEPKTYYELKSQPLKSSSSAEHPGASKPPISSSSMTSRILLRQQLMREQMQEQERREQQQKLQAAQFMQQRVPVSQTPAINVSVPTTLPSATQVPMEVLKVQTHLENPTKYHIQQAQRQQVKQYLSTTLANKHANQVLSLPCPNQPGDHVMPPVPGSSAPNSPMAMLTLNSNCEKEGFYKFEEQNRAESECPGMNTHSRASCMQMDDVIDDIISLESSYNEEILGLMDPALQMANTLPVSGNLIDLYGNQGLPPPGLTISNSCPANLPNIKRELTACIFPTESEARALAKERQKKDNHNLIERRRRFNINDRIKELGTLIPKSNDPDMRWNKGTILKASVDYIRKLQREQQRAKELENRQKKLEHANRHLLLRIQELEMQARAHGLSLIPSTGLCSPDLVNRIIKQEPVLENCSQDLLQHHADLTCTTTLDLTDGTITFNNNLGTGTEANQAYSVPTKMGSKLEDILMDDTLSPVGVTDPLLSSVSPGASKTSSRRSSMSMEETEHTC
# [7] = target: Eukaryotic translation initiation factor 4E (Mus musculus, UniProt P63073); experiment: eIF4E–eIF4G protein interaction inhibitors, dose response, biochemical, TR-FRET (AID 855); format: functional;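 also: potency for disrupting eIF4E binding to eIF4GI seen as loss of FRET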
# Chain of Eukaryotic translation initiation factor 4E (P63073 whole entry): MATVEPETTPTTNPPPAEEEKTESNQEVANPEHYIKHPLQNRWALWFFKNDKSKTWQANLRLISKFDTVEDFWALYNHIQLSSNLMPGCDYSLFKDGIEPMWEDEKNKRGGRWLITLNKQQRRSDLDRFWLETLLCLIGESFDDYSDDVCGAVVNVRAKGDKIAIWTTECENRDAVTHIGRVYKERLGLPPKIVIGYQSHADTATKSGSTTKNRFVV
# [8] = target: T2, Glutathione-S-transferase (Schistosoma japonicum, UniProt Q26513); experiment: biotin-GST/anti-GST TR-FRET signal inhibitors, dose response, artefact control for Vif-APOBEC3G degradation inhibitor project, biochemical (AID 1117362); format: functional
# T2 sequence (Q26513 whole entry): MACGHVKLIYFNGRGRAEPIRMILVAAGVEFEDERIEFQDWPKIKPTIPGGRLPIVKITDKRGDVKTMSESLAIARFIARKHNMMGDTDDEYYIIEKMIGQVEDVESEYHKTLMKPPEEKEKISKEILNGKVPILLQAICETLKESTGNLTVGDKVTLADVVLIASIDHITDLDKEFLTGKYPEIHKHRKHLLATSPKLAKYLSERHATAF
# [9] = target: Induced myeloid leukemia cell differentiation protein Mcl-1 (Homo sapiens, UniProt Q07820); format: functional
# Chain of Induced myeloid leukemia cell differentiation protein Mcl-1 (Q07820 whole entry, the tested form may be a part): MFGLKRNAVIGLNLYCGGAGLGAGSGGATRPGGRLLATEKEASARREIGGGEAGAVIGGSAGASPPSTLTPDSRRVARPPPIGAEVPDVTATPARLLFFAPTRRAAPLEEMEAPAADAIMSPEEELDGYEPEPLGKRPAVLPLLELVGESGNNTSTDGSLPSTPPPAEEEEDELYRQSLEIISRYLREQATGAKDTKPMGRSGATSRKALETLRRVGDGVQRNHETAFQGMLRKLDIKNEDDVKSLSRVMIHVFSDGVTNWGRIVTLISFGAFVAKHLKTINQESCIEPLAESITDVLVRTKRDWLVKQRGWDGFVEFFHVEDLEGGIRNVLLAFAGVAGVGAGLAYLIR
# [10] = target: T3, RNA-binding protein pos-1 (Caenorhabditis elegans, UniProt G5EF15); experiment: inhibitors of POS-1/mex-3 RNA binding, dose response, biochemical, fluorescence polarization (AID 1964);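 also: purified POS-1 fused to maltose binding protein made in E. coli; potency of compounds blocking POS-1 binding to fluorescent RNA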
# T3 sequence (G5EF15 whole entry): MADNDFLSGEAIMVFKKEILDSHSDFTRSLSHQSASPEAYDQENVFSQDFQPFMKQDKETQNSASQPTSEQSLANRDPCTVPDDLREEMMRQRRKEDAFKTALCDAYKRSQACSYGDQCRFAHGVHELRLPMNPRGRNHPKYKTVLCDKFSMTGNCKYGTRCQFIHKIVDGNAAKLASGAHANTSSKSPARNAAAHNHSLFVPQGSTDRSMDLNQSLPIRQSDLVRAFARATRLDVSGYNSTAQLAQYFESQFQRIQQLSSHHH
# [11] = tested on: Streptococcus sp. 'group A'; experiment: growth inhibition of control SK(-) GAS strain, dose response, counter-screen for streptokinase expression inhibitor project, luminescence, kanamycin, BacTiterGlo, confirmation (AID 1900); format: functional, organism-based
# [12] = target: T4, Zinc finger protein mex-5 (Caenorhabditis elegans, UniProt Q9XUB2); experiment: MEX-5/TCR-2 RNA interaction inhibitors, dose response, biochemical, C. elegans, fluorescence polarization (AID 1960)
# T4 sequence (Q9XUB2 whole entry): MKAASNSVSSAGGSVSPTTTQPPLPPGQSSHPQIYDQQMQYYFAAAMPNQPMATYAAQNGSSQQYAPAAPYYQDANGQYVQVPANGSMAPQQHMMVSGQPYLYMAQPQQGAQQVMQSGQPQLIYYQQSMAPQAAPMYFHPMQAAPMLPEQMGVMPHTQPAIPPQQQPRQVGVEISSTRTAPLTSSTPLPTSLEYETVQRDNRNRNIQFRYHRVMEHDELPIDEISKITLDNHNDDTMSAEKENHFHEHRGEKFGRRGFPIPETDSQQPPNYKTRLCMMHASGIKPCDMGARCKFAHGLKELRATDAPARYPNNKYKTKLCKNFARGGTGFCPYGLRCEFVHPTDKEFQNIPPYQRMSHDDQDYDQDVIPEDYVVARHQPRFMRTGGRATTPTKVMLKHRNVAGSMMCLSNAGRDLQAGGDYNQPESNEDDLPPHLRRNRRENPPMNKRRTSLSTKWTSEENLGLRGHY
# Streptococcus = experiment: Group A Streptococcus viability loss, dose response, counter-screen for streptokinase expression inhibitor project, luminescence, BacTiterGlo (AID 1915); format: functional, organism-based;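 also: potency for reduction of bacterial viability or growth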
# Protein Tat = target: T5, Protein Tat (Human immunodeficiency virus type 1 group M subtype B (isolate HXB2)(HIV-1), UniProt P04608); format: functional;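 also: tat binding to TAR RNA read out by fluorescence polarization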
# T5 sequence (P04608 whole entry): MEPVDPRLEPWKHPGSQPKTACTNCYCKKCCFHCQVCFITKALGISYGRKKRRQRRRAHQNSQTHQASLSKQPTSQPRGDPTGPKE
# [13] = THP-1 cell cytotoxicity, dose response, cytotoxicity control for Vif-APOBEC3G degradation inhibitor project, THP-1 cells (AID 1117359); format: functional; conditions: Human immunodeficiency virus 1, THP-1
# [14] = cytotoxicity in HPDE-C7 cells, cell-based, fluorescence, HTS (AID 430); format: functional; conditions: Homo sapiens
# [15] = cytotoxicity in KRAS-transformed pancreatic duct cells, primary screen, cell-based, fluorescence, HTS (AID 431); format: functional; conditions: Homo sapiens;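 also: cell line used: HPDE-C7K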
# H9c2 = experiment: cells; format: functional, cell-based; conditions: Rattus norvegicus, H9c2, Myocardium;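 also: confirmatory concentration-response retest of ultra-high-throughput screening hits for modulation of myocardial damage; cell death induced by hydrogen peroxide oxidative stress; compound pretreatment for 60 min then peroxide exposure for 2 h; potency is for protecting the cells against peroxide damage rather than for killing them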
# A-375 = experiment: MITF: Counter assay: A375 proliferation Measured in Cell-Based System Using Plate Reader - 2084-03_Inhibitor_Dose_DryPowder_Activity. [Related pubchem assays (depositor defined):AID488944]; format: functional; conditions: Homo sapiens
# Protein skinhead-1 = target: T6, Protein skinhead-1 (Caenorhabditis elegans, UniProt P34707); format: functional
# T6 sequence (P34707 whole entry): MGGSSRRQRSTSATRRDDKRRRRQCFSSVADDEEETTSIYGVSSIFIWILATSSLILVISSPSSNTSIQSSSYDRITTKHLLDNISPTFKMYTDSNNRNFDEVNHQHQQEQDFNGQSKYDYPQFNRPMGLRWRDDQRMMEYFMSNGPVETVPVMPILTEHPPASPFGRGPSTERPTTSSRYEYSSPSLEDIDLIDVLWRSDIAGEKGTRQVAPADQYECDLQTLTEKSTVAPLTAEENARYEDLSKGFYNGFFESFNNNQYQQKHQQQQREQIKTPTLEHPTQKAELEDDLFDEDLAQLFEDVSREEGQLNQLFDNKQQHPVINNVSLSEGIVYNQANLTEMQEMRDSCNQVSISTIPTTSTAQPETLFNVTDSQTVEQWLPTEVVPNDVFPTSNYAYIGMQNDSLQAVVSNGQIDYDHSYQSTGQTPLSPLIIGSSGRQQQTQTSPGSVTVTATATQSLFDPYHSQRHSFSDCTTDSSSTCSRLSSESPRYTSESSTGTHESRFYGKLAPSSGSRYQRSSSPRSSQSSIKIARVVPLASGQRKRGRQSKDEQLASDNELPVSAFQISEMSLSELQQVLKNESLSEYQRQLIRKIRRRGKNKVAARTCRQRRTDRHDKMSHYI
# CHO-K1 = experiment: Counterscreen for antagonists of the orexin 1 receptor (OX1R; HCRTR1): Homogeneous time resolved fluorescence (HTRF)-based cell-based dose response assay to identify antagonists of the parental CHO-K1 cell line. [Related pubchem assays (depositor defined):AID434989, AID435008, AID463079, AID485270, AID492963, AID492964, AID492965, AID493232, AID504699, AID504701]; format: functional; conditions: Cricetulus griseus;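 also: potency for inhibition of ATP-stimulated IP1 production as antagonists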
# [16] = target: T7, Orexin/Hypocretin receptor type 1 (Homo sapiens, UniProt O43613); experiment: Homogeneous Time Resolved Fluorescence (HTRF)-based cell-based high throughput dose response assay for antagonists of the orexin 1 receptor (OX1R; HCRTR1). [Related pubchem assays (depositor defined):AID434989, AID435008, AID463079, AID485270, AID492963, AID492964, AID492965, AID493232, AID504717, AID504718]; format: functional
# T7 sequence (O43613 whole entry): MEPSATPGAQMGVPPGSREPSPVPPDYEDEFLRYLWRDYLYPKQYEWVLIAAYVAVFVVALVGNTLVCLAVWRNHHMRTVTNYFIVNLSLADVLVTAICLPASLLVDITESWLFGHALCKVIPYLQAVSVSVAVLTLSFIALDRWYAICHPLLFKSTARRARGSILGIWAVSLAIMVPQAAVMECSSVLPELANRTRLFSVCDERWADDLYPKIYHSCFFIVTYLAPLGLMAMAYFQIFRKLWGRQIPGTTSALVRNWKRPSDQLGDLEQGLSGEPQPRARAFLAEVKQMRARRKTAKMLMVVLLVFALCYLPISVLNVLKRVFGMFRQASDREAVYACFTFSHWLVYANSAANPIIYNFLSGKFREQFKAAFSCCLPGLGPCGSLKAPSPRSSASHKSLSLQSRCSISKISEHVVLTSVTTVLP
# [17] = Counterscreen for antagonists of the orexin 1 receptor (OX1R; HCRTR1): Fluorescence-based cell-based high throughput dose response assay to identify antagonists of the parental CHO cell line. [Related pubchem assays (depositor defined):AID434989, AID435008, AID463079, AID485270, AID492963, AID492964, AID492965, AID493232, AID504699, AID504701]; format: functional
# [18] = target: T7, Orexin/Hypocretin receptor type 1; experiment: Fluorescence-based cell-based high throughput dose response assay for antagonists of the orexin 1 receptor (OX1R; HCRTR1). [Related pubchem assays (depositor defined):AID434989, AID435008, AID463079, AID485270, AID492963, AID492964, AID492965, AID493232, AID504717, AID504718]; format: functional
smiles,measurement,setting,value
COC(=O)c1ccc(C)c(NS(=O)(=O)c2ccc3c(c2)OCCO3)c1,EC50,[1],1.3 µM (active)
same,EC50,[2],8.4 µM (inconclusive)
same,EC50,[3],9.9 µM (active)
same,IC50,[4],> 80 µM (inactive)
CC(C)(C)[S@+]([O-])N1Cc2cc(C(=O)N[C@@H]3CCN(Cc4ccccc4)C3)nc(-c3cccc(-c4ccncc4)c3)c2[C@@H]1CCO,AC50,[5],4.68 µM (active)
COc1cc(/C=N/NC(=S)NCCN2CCOCC2)cc(OC)c1O,IC50,Nonstructural protein 1,70.1 µM (active)
O=C(Nc1ccc(Cl)c(S(=O)(=O)N2CCOCC2)c1)c1ccc(OCC2CCCO2)cc1 (stereo unspecified),AC50,[6],3.26 µM (active)
same,IC50,[4],16.9 µM (active)
Cc1ccccc1/C(O)=C(\C#N)N=Nc1c(C)n(C)n(-c2ccccc2)c1=O,IC50,Nonstructural protein 1,10.9 µM (active)
O=C(COc1ccccc1Cl)c1ccc[nH]1,IC50,[7],50 µM (inactive)
same,IC50,[8],> 100 µM (active)
COC(=O)CSc1ncnc2c1sc1nc(-c3ccco3)c3c(c12)CC(C)(C)OC3,IC50,[9],4.15 µM (active)
Cc1ncc(CO)c(/C=N/NC(=O)c2cc(Br)ccc2O)c1O,EC50,[10],> 300 µM (not active)
same,EC50,[11],1.39 µM (active)
same,EC50,[12],5.72 µM (active)
same,IC50,Nonstructural protein 1,11.3 µM (active)
same,EC50,Streptococcus,1.06 µM (active)
Nc1ccc(N2CCCCCC2)cc1,IC50,Protein Tat,11.8 µM (inconclusive)
same,CC50,[13],13.3 µM (active)
same,IC50,[8],44.5 µM (active)
same,EC50,[14],13.3 µM (active)
same,EC50,[15],15.4 µM (active)
CCOc1ccc(NC(=O)c2cc3c(C)nc4ccccc4c3o2)cc1,IC50,H9c2,> 79 µM (inactive)
same,IC50,[4],> 80 µM (inactive)
Oc1c(CN2CCCC2)cc(COCc2ccccc2)c2cccnc12,IC50,Nonstructural protein 1,3.78 µM (active)
same,AC50,[6],6.15 µM (active)
same,AC50,A-375,32.7 µM (active)
CCN(CC)c1ccc(C(=S)N2CCN(c3ccccc3)CC2)cc1,IC50,Nonstructural protein 1,> 100 µM (active)
same,IC50,Protein skinhead-1,> 100 µM (inactive)
C[C@@H]1CN([C@H](C)CO)C(=O)c2cc(-c3ccc(C#N)cc3)cnc2O[C@H]1CN(C)C(=O)Nc1ccc(C(F)(F)F)cc1,AC50,[5],21.2 µM (active)
COc1ccccc1NC(=O)c1cnc(Nc2ccccc2OC)c2ccccc12,IC50,[4],> 80 µM (inactive)
CC1CC1C(=O)OCC(=O)Nc1ccc2[nH]c(O)nc2c1 (stereo unspecified),IC50,[9],5.94 µM (active)
O=C1N[C@@H](c2ccccc2)COC(=O)[C@@H](Cc2ccc(F)cc2)C/C=C\C[C@@H]1CC(=O)N(CCO)Cc1ccccc1,IC50,CHO-K1,> 66.2 µM (inactive)
same,IC50,[16],12 µM (inactive)
same,IC50,[17],> 49.7 µM (inactive)
same,IC50,[18],13.8 µM (inactive)

# Reference: ChEMBL document CHEMBL1201862, “PubChem BioAssay data set” (2004)
